In test [1] the target is GDP-bound KRAS protein (aa 1-169), containing both G12D and C118A amino acid substitutions (Homo sapiens, UniProt P01116, C118A/G12D). The experiment in a line: KRAS G12D Coupled Nucleotide Exchange Assay.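 Further: IC50 obtained by fitting the AlphaScreen signal with a four-parameter logistic curve.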 The format is biochemical. Conditions: 2 h compound pre-incubation; SOS-mediated nucleotide exchange, cRAF AlphaScreen readout. (In general: Bead proximity is the source of the signal in Alpha formats.)
Chain of GDP-bound KRAS protein (aa 1-169), containing both G12D and C118A amino acid substitutions (P01116 1-169 isoform P01116-2 G12D/C118A): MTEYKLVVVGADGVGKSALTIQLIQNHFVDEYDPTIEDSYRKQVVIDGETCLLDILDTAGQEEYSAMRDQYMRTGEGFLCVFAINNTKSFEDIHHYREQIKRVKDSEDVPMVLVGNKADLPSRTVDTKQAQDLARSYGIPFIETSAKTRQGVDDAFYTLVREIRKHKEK

Test [2] deals with His-tagged KRAS G12D protein (Homo sapiens, UniProt P01116, G12D). The experiment in a line: KRAS G12D TR-FRET Assay.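 Further: europium anti-His antibody paired with streptavidin-d2 as FRET partners, initial 30 min incubation, then peptide 1 h and detection reagents 1 h, all at room temperature.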 It counts as binding. The conditions noted are these: biotinylated KRPep-2d substrate, 10 μM GDP. (TR-FRET usually uses a lanthanide donor and a delayed reading to cut background.)
Chain of His-tagged KRAS G12D protein (P01116 1-188 isoform P01116-2 G12D): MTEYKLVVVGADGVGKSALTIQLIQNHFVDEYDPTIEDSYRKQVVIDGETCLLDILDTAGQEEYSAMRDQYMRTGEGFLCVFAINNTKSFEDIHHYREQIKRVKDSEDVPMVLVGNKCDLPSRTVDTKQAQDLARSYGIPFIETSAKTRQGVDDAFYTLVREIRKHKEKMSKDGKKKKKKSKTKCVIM
Test [3] concerns Phosphorylation of ERK1/2 in A-427 cells. The experiment in a line: Phospho-ERK1/2 MSD Assay. Conditions: 2 h compound treatment, read-out: pERK (A427 cells) IC50. The format is cell-based. The procedure:
A-427 (ATCC® HTB-53™) cells were cultured in RPMI 1640 Medium (ThermoFisher Scientific 11875093) containing 10% fetal bovine serum (ThermoFisher Scientific 16000044) and 1× penicillin-streptomycin-glutamine (ThermoFisher Scientific 10378016). Sixteen hours prior to compound treatment, A-427 cells were seeded in 96-well cell culture plates at a density of 25,000 cells/well and incubated at 37° C., 5% CO2. A compound dose-response titration was diluted in growth media, added to appropriate wells of a cell culture plate, and then incubated at 37° C., 5% CO2 for 2 h. Following compound treatment, cells were washed with ice-cold Dulbecco's phosphate-buffered saline, no Ca^2+ or Mg^2+ (ThermoFisher Scientific 14190144), and then lysed in RIPA buffer (50 mM Tris-HCl pH 7.5, 1% Igepal, 0.5% sodium deoxycholate, 150 mM NaCl, and 0.5% sodium dodecyl sulfate) containing protease inhibitors (Roche 4693132001) and phosphatase inhibitors (Roche 4906837001). Phosphorylation of ERK1/2 in compound-treated lysates was assayed using Phospho-ERK1/2 Whole Cell Lysate kits (Meso Scale Discovery K151DWD) according to the manufacturer's protocol. Assay plates were read on a Meso Scale Discovery Sector Imager 6000, and data were analyzed using a 4-parameter logistic model to calculate IC50 values.

Like-named read-outs stand apart in the source and are kept apart here.

In general, IC50 refers to the concentration that inhibits the measured activity by half.

Regarding `CN1CCC[C@H]1COc1nc2c(F)c(-c3cccc4sc(N)nc34)c(Cl)cc2c(N2CCNCC2)c1C#N` [Example 158, 7-(2-aminobenzo[d]thiazol-4-yl)-6-chloro-8-fluoro-2-(((S)-1-methylpyrrolidin-2-yl)methoxy)-4-(piperazin-1-yl)quinoline-3-carbonitrile], in test [1], the “Avg 2 h Coupled Exchange IC50” value is 87 nM. Moreover, the IC50 in test [2] is 414 nM; in test [3] (Homo sapiens, A-427, 2 h), 3290 nM.

As to `CN1CC[C@@H](COc2nc(N3CCNCC3)c3cc(Cl)c(-c4cccc5sc(N)nc45)c(F)c3n2)C1` [Example 53, 4-(6-chloro-8-fluoro-2-(((R)-1-methyl-pyrrolidin-3-yl)methoxy)-4-(piperazin-1-yl)quinazolin-7-yl)benzo[d] thiazol-2-amine], in test [1], the “Avg 2 h Coupled Exchange IC50” value came to 75 nM. The 50% inhibitory concentration (IC50) in test [2] is 414 nM; in test [3] (Homo sapiens, A-427, 2 h), above 25000 nM.

`Nc1nc2c(-c3c(Cl)cc4c(N5CCNCC5)nc(OC[C@@H]5C[C@@H](F)CN5)nc4c3F)cccc2s1` [Example 47, 4-(6-chloro-8-fluoro-2-(((2S,4R)-4-fluoro-pyrrolidin-2-yl)methoxy)-4-(piperazin-1-yl)quinazolin-7-yl)benzo[d] thiazol-2-amine]: in test [1], the “Avg 2 h Coupled Exchange IC50” value is 26 nM. Moreover, the half-maximal inhibitory concentration (IC50) in test [2] was 81 nM; in test [3] (Homo sapiens, A-427, 2 h), above 25000 nM.

For the compound `Nc1nc2c(-c3c(Cl)cc4c(N5CCNCC5)nc(OC[C@@H]5CCCN5CCF)nc4c3F)cccc2s1` [Example 56, 4-(6-chloro-8-fluoro-2-(((S)-1-(2-fluoroethyl)pyrrolidin-2-yl)methoxy)-4-(piperazin-1-yl)quinazolin-7-yl)benzo[d] thiazol-2-amine], the “Avg 2 h Coupled Exchange IC50” value in test [1] turned out to be 118 nM. Moreover, the half-inhibitory concentration (IC50) was 266 nM in test [2] and 5670 nM in test [3] (Homo sapiens, A-427, 2 h).

With `N#Cc1c(OCC23CCCN2C[C@H](F)C3)nc2c(F)c(-c3ccc(F)c4sc(N)nc34)c(Cl)cc2c1N1[C@@H]2CC[C@H]1CNC2` (stereo partly drawn) [Example 159, 7-(2-amino-7-fluorobenzo[d]thiazol-4-yl)-4-((1R,5S)-3,8-diazabicyclo[3.2.1]octan-8-yl)-6-chloro-8-fluoro-2-(((2R)-2-fluorotetrahydro-1H-pyrrolizin-7a(5H)-yl)methoxy)quinoline-3-carbonitrile], the “Avg 2 h Coupled Exchange IC50” value in test [1] turned out to be 88 nM. Besides, the IC50 in test [2] was 174 nM; in test [3] (Homo sapiens, A-427, 2 h) it was above 10000 nM.

As for `CN1CC[C@H]1COc1nc(N2CCNCC2)c2cc(Cl)c(-c3cccc4sc(N)nc34)c(F)c2n1` [Example 52, 4-(6-chloro-8-fluoro-2-(((S)-1-methylazetidin-2-yl)methoxy)-4-(piperazin-1-yl)quinazolin-7-yl)benzo[d] thiazol-2-amine], in test [1], the “Avg 2 h Coupled Exchange IC50” value is 59 nM. For the same compound, the IC50 in test [2] worked out at 134 nM; in test [3] (Homo sapiens, A-427, 2 h), 16000 nM.

Consider `Nc1nc2c(-c3c(Cl)cc4c(N5C6CCNCC5CC6)nc(OC[C@@]56CCCN5C[C@H](F)C6)nc4c3F)ccc(F)c2s1` (single isomer, unassigned) [Example 32], for which the “Avg 2 h Coupled Exchange IC50” value in test [1] is 16 nM. Besides, the concentration for half-maximal inhibition (IC50) is 54 nM in test [2] and 164 nM in test [3].

Regarding `Nc1nc2c(-c3ccc4c(N5[C@@H]6CC[C@H]5CNC6)nc(OC[C@@]56CCCN5C[C@H](F)C6)nc4c3)ccc(F)c2s1` [Example 135, 4-(4-((1R,5S)-3,8-diazabicyclo[3.2.1]octan-8-yl)-2-(((2R,7aS)-2-fluorotetrahydro-1H-pyrrolizin-7a(5H)-yl)methoxy)quinazolin-7-yl)-7-fluorobenzo[d]thiazol-2-amine], in test [1], the “Avg 2 h Coupled Exchange IC50” value is 64 nM. For the same compound, the IC50 is 207 nM in test [2] and above 10000 nM in test [3] (Homo sapiens, A-427, 2 h).

Source of the values: patent publication US20250059179A1, “Heterocyclic Compounds and Methods of Use” (AMGEN INC., priority 2021, published 2025).
